# According to patent publication US6060481A, “Method for improving insulin sensitivity using an adenosine receptor antagonist” (priority 1999, dated 2000):
# Columns and labels:
# [1] = test system: insulin receptor kinase; test: Insulin receptor kinase assay of partially purified receptors from gastrocnemius of treated rats; type: in vivo, Zucker rats
# Method: BWA1433 was administered as previously described, in a suspension of 7 mg/ml methyl cellulose containing 10 mg/ml BWA1433. BWA1433 was supplied as a free acid from Glaxo-Wellcome but was adjusted to pH 8.0 with NaOH prior to use. In this way, treated animals were given 12 mg/kg BWA1433 every 12 hours (±1 hour) for one week.
# Insulin receptors were prepared from 100 mg frozen powdered skeletal muscle using lectin affinity chromatography, as taught by Caro, J. Clin. Invest., 79:1330-1337 (1987). Supernatants from detergent (Triton X-100) solubilized muscle were cycled over 0.3 ml bed volume wheat germ agglutinin agarose (WGA) columns, after which the columns were washed thoroughly overnight. The receptors were eluted in one ml of buffer containing 25 mM N-[2-hydroxyethyl]piperazine-N'-[2-ethanesulfonic acid] (HEPES) (pH 7.6), 55 mM NaCl, 11.25 mM KCI, 0.5 mM CaCl2, 0.5 mM MgCl2, 0.5 mM Na3 VO4, 5 mM NaF, 10% glycerol, 0.05% Triton X-100, and 300 mM-acetyl-D-glucosamine. WGA column eluates were aliquoted to avoid multiple freezing/thawing and were stored at -70° C. until use. Columns were thoroughly washed (50-100 bed volumes wash buffer) and reused. Receptors were quantitated by assaying protein and immunoblotting to specifically assess insulin receptor protein.
# Insulin receptor kinase activity was determined using a modification of previously published techniques by Debant, et al., Am. […] Papers were blotted, oven-dried, and radioactivity determined by scintillation counting using a Beckman Model LS3801 scintillation counter. Activity was calculated in mUnits receptor kinase/mg of WGA eluate protein. […]
# Insulin receptor kinase activity was measured 1) in the basal state in non-insulin-injected animals, 2) in insulin-injected animals without added insulin, and 3) in receptors isolated from insulin injected animals but stimulated in vitro with 1 μM exogenous insulin. […] Intravenous insulin-injection increased the observed activity of the insulin receptor kinase 7- to 12-fold when measured in the absence of insulin added in vitro (FIG. 4A). […]
# [2] = test system: protein tyrosine phosphatase; test: In vitro inclusion of compound in WGA eluates, protein tyrosine phosphatase assay; type: biochemical, Zucker rats; conditions: 10 μM in vitro in WGA eluates from obese controls
# Method: Assays were performed at 25° C. using a slight modification of a protocol described by Ahmad and Goldstein, Am. […] Each tube contained 10 μl [^32 P]tyrosine-phosphorylated myelin basic protein (1×10^4 dpm; 2×10^3 dpm/pmol), 10 μl 5X PTP-ase buffer [250 mM HEPES (pH 7.0), 10 mM EDTA, 5 mM DTT], and 1-5 μg muscle fraction protein and water in a total volume of 40 μl. Consumption of substrate (phosphorylated myelin basic protein) was limited to 20%. […] The assay differs from that of Ahmed and Goldstein in that the amount of phosphorylated substrate (myelin basic protein) was lower and its specific activity higher, similar to the skeletal muscle PTPase assay described by Tanowitz, et al., Brain Res., 712:299-306 (1996).
# (§1) PTPase was measured in skeletal muscle cytosolic fractions, particulate fractions, and in partially purified insulin receptors. To assay PTPase activity in partially purified insulin receptors the WGA eluates were dialyzed overnight against 0.1% β-mercaptoethanol and 20 mM HEPES, pH 7.2, to eliminate phosphatase inhibitors.
# [3] = test system: protein tyrosine phosphatase; test: Protein tyrosine phosphatase assay of gastrocnemius fractions and insulin receptor preparations of treated rats; type: in vivo, Zucker rats
# Method: Approximately 100 mg frozen tissue were homogenized in 5 ml buffer containing 10 mM NaHCO3, (pH 7.4), 250 mM sucrose, 0.1 mg/ml aprotinin, 0.05 mg/ml leupeptin, 1 mM phenylmethysulfonyl fluoride (PMSF), and 5 mM NaN3 (CHB buffer) and then sonicated for 1 min on ice with three 20-sec bursts. The sonicate was centrifuged at 1,200 g for 10 min at 4° C. Three ml of CHB medium was added to the pellet which was then rehomogenized for 1 min and respun. The suspensions of the two pellets were combined, rehomogenized, and respun at 10,000 g for 10 minutes at 4° C. The 10,000 g pellet was discarded and the supernatant was transferred to a cold Ti75 ultracentrifuge tube and spun at 270,000 g for 90 minutes. The supernatant of the high speed centrifugation (cytosol) was used for PTPase assays. The 270,000 g pellet was resuspended in 0.500 ml buffer containing 250 mM sucrose, 20 mM HEPES (pH 7.4), 0.6 M KC1, and 1% Triton X-100. A 27 gauge syringe needle was used to completely solubilize the pellet. The supernatant was spun at 12,000 rpm for 20 min and the resulting supernatant, termed particulate fraction was then dialyzed overnight at 4° C. against 20 mM HEPES (pH 7.2) and 0.1% β-mercaptoethanol. Samples were stored at -70° C. until used for PTPase assays.
# Each tube contained 10 μl [^32 P]tyrosine-phosphorylated myelin basic protein (1×10^4 dpm; 2×10^3 dpm/pmol), 10 μl 5X PTP-ase buffer [250 mM HEPES (pH 7.0), 10 mM EDTA, 5 mM DTT], and 1-5 μg muscle fraction protein and water in a total volume of 40 μl. Consumption of substrate (phosphorylated myelin basic protein) was limited to 20%.
# One unit of PTPase activity is defined as the amount of enzyme releasing 1 nmol phosphate/min from myelin basic protein.
# as §1
# [4] = biological target: T1, human A2B adenosine receptor (Homo sapiens, UniProt P29275); test: Binding constants against cloned and expressed human adenosine receptor subtypes (A2B); conditions: read-out: Binding constant (KD) A2B
# T1 construct: expressed in transfected cells
# T1 sequence (P29275 1-332): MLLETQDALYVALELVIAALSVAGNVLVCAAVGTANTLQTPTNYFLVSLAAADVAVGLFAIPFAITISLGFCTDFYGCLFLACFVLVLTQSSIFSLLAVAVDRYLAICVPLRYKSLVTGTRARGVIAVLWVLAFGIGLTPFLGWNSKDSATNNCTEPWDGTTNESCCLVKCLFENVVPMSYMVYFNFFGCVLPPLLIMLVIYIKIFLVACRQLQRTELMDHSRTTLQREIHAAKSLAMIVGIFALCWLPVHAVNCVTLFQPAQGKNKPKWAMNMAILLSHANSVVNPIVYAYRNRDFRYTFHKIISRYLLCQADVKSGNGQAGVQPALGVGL
# Text: Any A2B adenosine receptor antagonist can be used according to the present methods. Methods for determining whether a compound is an A2B adenosine receptor agonist or antagonist involve quantitating its binding affinity to membranes which are known to contain the A2B subtype. The methods for determining whether compounds are specific ligands of different adenosine receptor subtypes will be known by practitioners of the art. […] References cited therein provide more complete descriptions of the procedures used.
# In these previous methods, a radioactive compound (DPCPX) known to be highly specific for A1 adenosine receptors and whose KD is published was incubated with isolated fat cell membranes. A1 adenosine receptors are abundant in fat cells and DPCPX's binding to fat cell membranes occurs due to those receptors. […] Human cells which express large amounts of human A2B adenosine receptors are not readily available. Therefore, in order to determine the KD of BWA1433 for the A2B adenosine receptor the cDNA of human A2B adenosine receptor was used to overexpress the A2B adenosine receptor in a mammalian cell line.
# [5] = Basal postabsorptive glucose kinetics; type: in vivo, Zucker rats; conditions: for Glucose Concentration / Glucose MCR / Glucose Ra: basal postabsorptive, treated 1 wk
# Method: In this example, 6-8 week old lean and obese female animals were used. Each group received either vehicle or vehicle plus 1,3-dipropyl-8-(p-acrylic)phenylxanthine (BWA1433) (12 mg/kg every 12 h) for one week prior to the start of the experimental protocol, as described by Xu, et al., Am. […] The vehicle in this case was 10 mg/ml methyl cellulose in H2 O. The final dose of BWA1433 or vehicle was administered approximately 1 h prior to the start of the experimental protocol.
# On the day prior to the start of the experimental protocol, animals were anesthetized with an intramuscular injection of ketamine and xylazine (90 and 9 mg/kg body weight, respectively), and sterile surgery was performed to implant catheters in the carotid artery and jugular vein according to the methods taught by Lang et al., Endocrinology, 130: 43-52 (1992). After surgery, animals were housed in individual cages and provided water ad libitum. Animals were fasted overnight.
# The following morning, a primed, constant intravenous infusion of [3-^3 H]glucose (high-performance liquid chromatography purified; DuPont-New England Nuclear, Boston, Mass.) was initiated to determine basal glucose kinetics. A 7-μCi bolus injection of labeled glucose was administered followed by a continuous infusion at a rate of 0.083 μCi/min for the next 2 h. Arterial blood samples were collected at 100 and 120 min (0.3 ml each) after the start of the tracer infusion. Blood was collected in heparinized syringes, centrifuged, and the plasma glucose concentration and glucose specific activity were determined on each sample.
# Rates of whole body glucose appearance (Ra) and disappearance (Rd) are calculated using the steady-state equations of Steele, Ann. […] The glucose metabolic clearance rate (MCR) is calculated by dividing the glucose Rd by the prevailing glucose concentration.
# [6] = biological target: T2, rat A3 receptor (Rattus norvegicus, UniProt P28647); conditions: rat versus human A3; cited from earlier work
# T2 sequence (P28647 1-320): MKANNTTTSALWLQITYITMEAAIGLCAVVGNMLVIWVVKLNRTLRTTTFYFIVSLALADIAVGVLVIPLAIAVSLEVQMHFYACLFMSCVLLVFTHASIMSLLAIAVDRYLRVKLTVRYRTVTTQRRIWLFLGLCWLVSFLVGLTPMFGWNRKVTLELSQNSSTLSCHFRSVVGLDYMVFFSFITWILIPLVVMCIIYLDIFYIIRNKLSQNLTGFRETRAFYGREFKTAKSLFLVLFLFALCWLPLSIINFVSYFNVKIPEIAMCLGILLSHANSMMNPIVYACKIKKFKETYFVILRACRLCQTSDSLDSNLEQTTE
smiles,measurement,setting,value
"CCCn1c(=O)c2[nH]c(-c3ccc(C=CC(=O)O)cc3)nc2n(CCC)c1=O [BWA1433, 1,3-dipropyl-8-(p-acrylic)phenylxanthine]",Insulin receptor kinase activity,"[1]; lean rats, insulin in vivo plus 1 μM insulin in vitro",no significant influence
same,Insulin receptor kinase activity,"[1]; obese animals, insulin injected in vivo, no insulin added in vitro",small but significant increase
same,Insulin receptor kinase activity,"[1]; obese rats, insulin in vivo plus 1 μM insulin in vitro",increased
same,Effect on protein tyrosine phosphatase activity,[2],no effect
same,Phosphatase activity in cytosolic fractions of gastrocnemius,"[3]; between groups (lean, obese, ± treatment)",No differences
same,PTPase activity in particulate fraction of gastrocnemius,[3]; obese Zucker rats,reduction
same,Reduction of phosphatase activity in partially-purified insulin receptor preparations compared to untreated controls,[3]; obese rats,27%
same,Kd,[4],60 nM
same,Alterations in any parameter of glucose metabolism,"[5]; basal conditions, either group (lean, obese)",did not produce detectable alterations
same,Glucose Concentration,[5]; lean rats,5.1 ± 0.2 mM
same,Glucose MCR,[5]; lean rats,7.1 ± 0.8 ml · min^-1 .multidot
same,Glucose Ra,[5]; lean rats,36.8 ± 2.9 μmol^-1 · min .multid
same,Glucose Concentration,[5]; obese rats,4.5 ± 0.2 mM
same,Glucose MCR,[5]; obese rats,8.3 ± 0.8 ml · min^-1 .multidot
same,Glucose Ra,[5]; obese rats,37.5 ± 4.8 μmol^-1 · min .multid
same,KD of rat A3 receptor relative to human A3 receptor,[6],much higher
